Data reported in patent publication US20180142206A1, “REVERSION OF PRIMED PLURIPOTENT STEM CELLS TO NAIVE PLURIPOTENT STEM CELLS” (The J. David Gladstone Institutes, A Testamentary Trust …, priority 2015, published 2018).

What was measured:
[1] = tested on: Xi-GFP mEpiSCs; test: Flow cytometric analysis of GFP and CD31 expression in Xi-GFP mEpiSCs; format: cell-based, mouse; details: for LIF induced Xi-reactivation (GFP/CD31 double positive cells): LIF-containing mEpiSC medium with or without Activin A and bFGF; for % of GFP/CD31 double positive cells compared with LIF alone: added to N2B27 medium containing LIF
Description: To more quantitatively assess the proportion of GFP positive cells under these three culture conditions, Fluorescence Activated Cell Sorting (FACS) was employed. For flow cytometric analyses, Xi-GFP mEpiSCs were dissociated into single cell suspensions with Accutase. The single cells were stained with a CD31 (PECAM) antibody (Clone MEC13.3/BD Bioscience (Franklin Lakes, N.J., USA)) conjugated with allophycocyanin, or APC. The stained cells were analyzed using MACSQuant VYB (Miltenyi Biotec, San Diego, Calif., USA) and FlowJo (FlowJo LLC, Ashland, Oreg., USA) software. […] In the LIF+2i and SNL-CM, the GFP^+ populations were also CD31^+, a marker for mouse naïve pluripotent stem cells (FIG. 1, panel C).
Xi-GFP mEpiSCs were dissociated with Accutase into single cell suspensions, and the single cells were seeded on a fibronectin-coated plate in the Activin A and bFGF-containing medium with two different cell densities (20,000 cells or 3,000 cells/well of a 6-well plate) one day before starting conversion experiments. Twenty-four hours after the seeding, fresh primed media was replenished as a negative control or changed to naïve medium. Assay medium was changed every 24 hours and GFP fluorescent was checked daily by microscopic inspection for eight (with 20,000 starting cells) to 13 days (with 3,000 starting cells).
The naïve media contained 1,000 units LIF (Millipore), 10 ng/ml BMP4 (R&D systems), 64 μg/ml L-ascorbic acid 2-phosphate (Sigma), 10 nM to 100 nM LPA (Avanti Polar Lipids (Alabaster, Ala., USA)), and/or 100 nM OMPT (Avanti Polar Lipids (Alabaster, Ala., USA)) in N2B27 basal medium purchased from StemCells Inc (Palo Alto, Calif., USA) or prepared in house for use in FIGS. 4 and 5. The in house N2B27 medium consists of 500 ml DMEM/F12+GlutaMax (Life Technologies (Carlsbad, Calif., USA), 500 ml Neurobasal medium (Life Technologies (Carlsbad, Calif., USA)), 5 ml N2 supplement (Life Technologies (Carlsbad, Calif., USA)), 10 ml B27 supplement (Life Technologies (Carlsbad, Calif., USA)), 666 μl 7.5% BSA Fraction V (Life Technologies (Carlsbad, Calif., USA)) and 5 ml GlutaMax (Life Technologies (Carlsbad, Calif., USA)/1 liter. At the end of the conversion experiments, the conversion efficiencies were evaluated by counting GFP^+ cell clusters or by flow cytometer.

[2] = tested on: hiPSCs; test: Reversion of primed hiPSCs containing episomal reprogramming factors in reversion media; format: cell-based, human; details: for conversion to cells with features of naïve pluripotency (dome shaped colonies): 1 μM OMPT, 10 ng/mL LIF in StemFit, no bFGF, TGF-β, laminin-511
Description: These naive-like cells formed three-dimensional dome shaped colonies characteristic of naïve pluripotent stem cells and very different from the colony morphology of primed hiPSCs. […] In addition, they provide the basis for further investigation of whether modulating the LPA-LPAR-RHO signaling axis can be used to generate and maintain human naïve pluripotent stem cells.

[3] = tested on: primed pluripotent stem cells; test: Cell morphology/toxicity of primed PSCs grown in various concentrations of LPA or OMPT
Description: To optimize the concentration of LPA and OMPT, primed pluripotent stem cells were grown in various concentrations of LPA or OMPT.

[4] = tested on: hiPSCs; test: Reversion of primed integration-free hiPSCs in lipid containing reversion media; format: cell-based, human
Description: Human iPSCs were generated with episomal vectors expressing Oct4, Sox2, Klf4, myc, Lin28 and shRNA against […] using the methods described by Okita et al. (2011) Nature Methods 8(5):409-412. The hiPSCs were grown in primed media containing bFGF and TGF-β in StemFit basal medium (or mTeSR orE8). Primed hiPSCs were then switched to reversion media and cultured on laminin-511 under hypoxic conditions. The reversion media contained 10 ng/mL LIF, 10 ng/mL Activin A, 100 ng/mL bFGF, 1 μM PD0325901 MEK inhibitor, 1 μM CHIR99021 GSK3β inhibitor, and 2 mM N-acetyl cysteine in StemFit basal medium with various concentrations of lipids (2 μM OMPT, 1 μM OMPT, 1 μM OMPT+20 nM LPA, or no lipids). After 5 to 7 days, three-dimensional dome shaped colonies, characteristic of naïve pluripotent stem cells, were observed. […] The naïve cells also expressed NANOG, KLF4, KLF17 and TFCP2L1, markers for naïve human pluripotent stem cells (FIG. 9).

[5] = tested on: Xi-GFP mEpiSCs; test: Xi-reactivation in Xi-GFP mEpiSC reporter line, GFP positive clusters by fluorescence microscopy; format: cell-based, mouse; details: exogenous addition to SNL-CM and non-CM+LIF
Description: During somatic cell reprogramming the human Xi is reliably reactivated in hiPSCs reprogrammed on SNL feeder cells. […] It was first determined whether the culture conditions that promoted reactivation of the Xi during reprogramming also promoted Xi-reactivation of mouse EpiSCs, which are XaXi. Results of culturing an X-GFP mEpiSC reporter line, in which the green fluorescent protein (GFP) gene is located on the X-chromosome in different media were assayed by fluorescence microscopy. Gillich et al., (2012) Cell Stem Cell 10(4):[…], Bao et al., (2009) Nature 461(7268):1292-1295. Xi-GFP mEpiSCs were kindly provided by Drs. Azim Surani and Siqin Bao and were routinely maintained on a fibronectin (Sigma, St. Louis, Mo., USA)-coated plate (feeder free condition) in N2B27 basal medium (Ndiff 227 medium from StemCells Inc (Palo Alto, Calif., USA) and later from Clontech (Mountain View, Calif., USA) supplemented with 20 ng/ml Activin A (R&D systems (Minneapolis, Minn., USA)) and 12 ng/ml bFGF (Millipore (Billerica, Mass., USA)). Cells were passaged every two to three days at a 1:20 dilution from a previous culture after detached/scraped and dissociated with Accutase (Millipore (Billerica, Mass., USA)).
Cells remain GFP negative when cultured under feeder-free mEpiSC conditions, N2B27 medium containing Activin A and bFGF on fibronectin coated plates (FIG. 1, panels A and B). […]

## NC(=O)c1ccc(-c2nc(-c3ccc4c(c3)OCO4)c(-c3ccccn3)[nH]2)cc1 [SB431542]
[1]; added to MEF-CM containing LIF
  % of GFP/CD31 double positive cells: enhances induction of the double positive cells

## Cc1noc(-c2ccc(CSCCC(=O)O)cc2)c1NC(=O)OC(C)c1ccccc1Cl (stereo not shown) [Ki16425]
[1]; added to medium containing LIF+LPA or LIF alone
  % of GFP^+ cells: significantly reduces

## lysophosphatidic acid [LPA]
[2]
  conversion to cells with features of naïve pluripotency (dome shaped colonies): converted to cells with characteristics of naïve PSCs
[2]; antibody staining, FIG. 6
  NANOG expression of naive-like cells: continue to express NANOG
[3]; 50 nM and 100 nM
  toxicity to primed pluripotent stem cells: toxic
[3]; FIG. 8
  concentration at which cell toxicities were observed: ≥ 10 nM
[1]; N2B27, without LIF
  induction of GFP^+ cells: induced GFP^+ cells, albeit less efficiently than with LIF

## CCCCCCCC/C=C\CCCCCCCC(=O)OC[C@H](COP(O)(O)=S)OC [OMPT, 1-oleoyl-2-methyl-sn-glycero-3-phosphothioate]
[4]; 2 μM or 1 μM OMPT, or 1 μM OMPT+20 nM LPA, laminin-511, hypoxic, approximately five passages
  time for which three-dimensional dome shaped colonies were maintained: more than one month
[4]; compared to control media containing no lipids, FIG. 7
  conversion of hiPSCs to cells with characteristics of naïve PSCs (colony morphology): converts the hiPSCs to cells with characteristics of naïve PSCs
[2]
  conversion to cells with features of naïve pluripotency (dome shaped colonies): cells with features of naïve pluripotency were observed

## bFGF: basic fibroblast growth factor
[1]
  LIF induced Xi-reactivation (GFP/CD31 double positive cells): negative effects

## O=C1O[C@H]([C@@H](O)CO)C(O)=C1O [ascorbic acid]
[1]
  % of GFP/CD31 double positive cells compared with LIF alone: increased

B1: Activin A: cytokine required for maintaining primed pluripotency in mEpiSCs (protein, UniProt Q04998 309-424, looked up)
Inhibin beta A chain: GLECDGKVNICCKKQFFVSFKDIGWNDWIIAPSGYHANYCEGECPSHIAGTSGSSLSFHSTVINHYRMRGHSPFANLKSCCVPTKLRPMSMLYYDDGQNIIKKDIQNMIVEECGCS
modifications: Inhibin beta A chain
[1]
  LIF induced Xi-reactivation (GFP/CD31 double positive cells): negative effects
[5]
  numbers of GFP+ clusters: significantly reduced

B2: BMP4: bone morphogenetic protein (protein, UniProt P12644 293-408, looked up)
Bone morphogenetic protein 4: SPKHHSQRARKKNKNCRRHSLYVDFSDVGWNDWIVAPPGYQAFYCHGDCPFPLADHLNSTNHAIVQTLVNSVNSSIPKACCVPTELSAISMLYLDEYDKVVLKNYQEMVVEGCGCR
[1]
  % of GFP/CD31 double positive cells compared with LIF alone: dramatically increased
[1]; alone in N2B27 basal medium (without bFGF or Activin A), data not shown
  GFP/CD31 double positive cells: did not induce GFP/CD31 double positive cells
